This note sets out measurements from patent publication US20240124528A1, “ANTAGONIST OF INTERLEUKIN-17B RECEPTOR (IL-17RB) AND USE THEREOF” (Academia Sinica, priority 2020, published 2024).

Test [1] concerns PDX-derived tumor cells (PC080, PC084). As to the kind of experiment: Aggressive behavior of PDX-derived pancreatic tumor cells (RT-qPCR, invasion, SACF). It counts as cell-based, human. The following applies: peptides 30 mins, then 50 ng/ml rIL-17B. As for the experimental part:
FIGS. 19A to 19D include charts showing that treatment with the loop peptide suppresses aggressive behavior of patient-derived pancreatic tumor cells. (FIG. 19A) CFPAC1 cells were treated with Alexa Fluor 568-labeled or non-labeled cold peptides of TAT48-57 (Control) and TAT-IL-17R403-416 (Loop) for 30 mins, respectively. Confocal microscopy was used for visualization of peptide penetration into cells. (FIG. 19B) The PDX-derived tumor cells (PC080 left, PC084 right) were pretreated with the peptides for 30 mins and then treated with 50 ng/ml rIL-17B for 2 hrs in serum-free conditions. (FIG. 19C and FIG. 19D) These cells were measured by RT-qPCR for the cytokine gene mRNA expression (n=3), or for Invasion assay (n=4) (FIG. 19C) and SACF assay (n=4) (FIG. 19D). Data in (FIG. 19B—FIG. 19D) are mean±s.d. * P<0.05, **P<0.001 by two-tailed Student's t-test.
A general note: Real-time PCR tracks product formation cycle by cycle.

Test [2] has as its target T1, interaction between IL-17RB and MLK4 (Homo sapiens, UniProt Q5TCX8).
T1 construct: host or cells: 293T (HEK293T)
As to the kind of experiment: Co-immunoprecipitation of IL-17RB and MLK4 after peptide pretreatment and rIL-17B. It counts as cell-based. The note with it: 293T cells expressing Flag-MLK4 and HA-IL-17RB; peptides 0, 0.1, 1, 10, 50, 100 ng/ml for 30 mins, then rIL-17B 30 mins. An excerpt: (§1) FIGS. 7A to 7J include charts showing that disruption of the interaction between IL-17RB and MLK4 by the loop peptide blocks oncogenic progression. (FIG. 7A) Peptides TAT48-57 (Control) (SEQ ID NO: 21) and TAT-IL-17RB403-416 (Loop) (SEQ ID NO: 30) used for the following experiments. (FIG. 7B) Immunoblotting analysis of IL-17RB binding to MLK4 with Loop peptide treatment. 293T cells expressing Flag-MLK4 and HA-IL-17RB were pretreated with the control and loop peptides with different dose (0, 0.1, 1, 10, 50, 100 ng/ml) for 30 mins, and then added rIL-17B for 30 mins. The cell lysates were reciprocally co-immunoprecipitated with anti-Flag and anti-HA and blotted with the indicated antibodies or directly immunoblotted with the indicated antibodies as the input controls. […] CCL20 and TFF/mRNA expression of these cells were measured by RT-qPCR (n=3) (FIG. 7D), the same cells were for invasion assay (n=4) (FIG. 7E) and SACF assay (n=4) (FIG. 7F). […] (FIG. 7I) The experimental EKP mice (n=7 for each group) were euthanized at Day 56, and the metastatic tumor nodules in the lungs were counted. […]
Whole-cell lysates were prepared as previously described (6, 7). […] After extensive washing with diluted lysis buffer (0.01% Triton X-100), IL-17RB and its associated proteins were analyzed by immunoblotting analysis. […]

Test [3] deals with pancreatic cancer cells expressing IL-17RB. As to the kind of experiment: RT-qPCR of cytokine gene expression (CCL20, TFF1) after peptide pretreatment and rIL-17B. It counts as cell-based, human. The following applies: CFPAC1 and PDX-derived cells; peptide 50 ng/ml 30 mins, then rIL-17B 2 hrs.
Source text: as §1, with “mins.” for “mins. The cell lysates were reciprocally co-immunoprecipitated with anti-Flag and anti-HA and blotted with the indicated antibodies or directly immunoblotted with the indicated antibodies as the input controls.”
FIGS. 19A to 19D include charts showing that treatment with the loop peptide suppresses aggressive behavior of patient-derived pancreatic tumor cells. […] (FIG. 19C and FIG. 19D) These cells were measured by RT-qPCR for the cytokine gene mRNA expression (n=3), or for Invasion assay (n=4) (FIG. 19C) and SACF assay (n=4) (FIG. 19D). […]

T1 sequence (Q5TCX8 whole entry): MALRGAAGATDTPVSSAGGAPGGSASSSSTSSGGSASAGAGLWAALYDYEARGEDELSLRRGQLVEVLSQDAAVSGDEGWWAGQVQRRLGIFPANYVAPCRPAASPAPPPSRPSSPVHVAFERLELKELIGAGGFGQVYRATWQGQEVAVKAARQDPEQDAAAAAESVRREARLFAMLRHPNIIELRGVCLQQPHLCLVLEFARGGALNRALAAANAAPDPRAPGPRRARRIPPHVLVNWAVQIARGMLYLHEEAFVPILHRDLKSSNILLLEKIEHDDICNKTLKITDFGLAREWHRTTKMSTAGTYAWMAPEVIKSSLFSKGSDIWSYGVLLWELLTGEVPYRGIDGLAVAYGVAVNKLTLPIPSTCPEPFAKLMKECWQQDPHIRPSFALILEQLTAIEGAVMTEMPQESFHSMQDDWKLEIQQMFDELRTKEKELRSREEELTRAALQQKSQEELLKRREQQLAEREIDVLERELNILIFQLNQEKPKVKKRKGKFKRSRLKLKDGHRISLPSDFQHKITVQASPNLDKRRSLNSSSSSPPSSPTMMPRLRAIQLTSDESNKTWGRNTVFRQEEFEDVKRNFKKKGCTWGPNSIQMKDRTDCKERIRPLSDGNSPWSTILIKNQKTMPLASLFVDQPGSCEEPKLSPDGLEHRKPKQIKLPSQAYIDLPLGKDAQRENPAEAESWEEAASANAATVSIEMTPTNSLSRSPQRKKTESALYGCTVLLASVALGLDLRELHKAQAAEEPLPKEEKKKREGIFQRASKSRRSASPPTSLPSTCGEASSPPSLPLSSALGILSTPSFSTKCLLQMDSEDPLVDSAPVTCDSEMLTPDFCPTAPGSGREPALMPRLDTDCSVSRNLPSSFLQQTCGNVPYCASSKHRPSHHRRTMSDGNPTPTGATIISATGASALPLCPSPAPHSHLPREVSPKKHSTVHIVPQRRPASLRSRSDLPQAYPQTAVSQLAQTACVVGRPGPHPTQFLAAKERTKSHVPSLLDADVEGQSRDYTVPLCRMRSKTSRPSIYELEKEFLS

Turning to “RKKRRQRRRVCDGTCGKSEGSPS (IL-17RB inhibitory peptide, fusion protein) [loop peptide]”, the “aggressive behavior of patient-derived pancreatic tumor cells” value in test [1] was “suppresses”. For the same sequence, the “interaction between IL-17RB and MLK4 (co-IP)” value in test [2] is “disrupted”. The “cytokine gene expression (CCL20, TFF1 mRNA)” value in test [3] is “diminished”.
